In patent publication US11000033B2, “Ketone or oxime compound, and herbicide” (NISSAN CHEMICAL CORPORATION, priority 2014, dated 2021):

How the values were obtained:
Type in all cases: in vivo
[1] = tested on: Echinochloa oryzacola Vasing.; experiment: Test Example 1: herbicidal activity, application before weed generation in submerged conditions (symbol A); conditions: application herbicide amount 320 g/ha
Outline: (§1)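 Greenhouse growth at 25–30 °C lasted 3 weeks after treatment, when each weed was graded 0–5 by herbicidal ratio. Treatment was a diluted emulsion applied to the water surface of 4 cm-submerged alluvial soil on the sowing day.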

Scirpus juncoides = experiment: Test Example 1: herbicidal activity, application before weed generation in submerged conditions (symbol B); conditions: application herbicide amount 320 g/ha
Outline: as §1

Setaria viridis [2] = experiment: Test Example 4: herbicidal effect by soil treatment (symbol G); conditions: application herbicide amount 320 g/ha
Outline: (§2)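 Seeds were sown in sterilized diluvial soil, covered with about 1.5 cm of soil, and the soil surface was sprayed with a water-diluted emulsion of the compound at a predetermined rate. Plants grew in a greenhouse at 25° C. to 30° C.; effects were scored visually 3 weeks after application.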

Amaranthus retroflexus = experiment: Test Example 4: herbicidal effect by soil treatment (symbol N); conditions: application herbicide amount 320 g/ha
Outline: as §2

Chenopodium album = experiment: Test Example 4: herbicidal effect by soil treatment (symbol O); conditions: application herbicide amount 320 g/ha
Outline: as §2

Galium spurium = experiment: Test Example 4: herbicidal effect by soil treatment (symbol Q); conditions: application herbicide amount 320 g/ha
Outline: as §2

Veronica persica = experiment: Test Example 4: herbicidal effect by soil treatment (symbol R); conditions: application herbicide amount 320 g/ha
Outline: as §2

Setaria viridis [3] = experiment: Test Example 5: herbicidal effect by foliage application, plastic box (symbol G); conditions: 320 g/ha, 3 weeks after application
Outline: (§3)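 Post-emergence spray; diluvial soil (sterilized), ~1.5 cm seed cover; greenhouse 25–30° C; 14-day-old plants; water-diluted emulsion at predetermined dose; visual score at 3 wk post-treatment.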

[4] = tested on: Echinochloa crus-galli var. crus-galli; experiment: Test Example 5: herbicidal effect by foliage application, plastic box (symbol H); conditions: 320 g/ha, 3 weeks after application
Outline: as §3

Alopecurus myosuroides = experiment: Test Example 5: herbicidal effect by foliage application, plastic box (symbol J); conditions: 320 g/ha, 3 weeks after application
Outline: as §3

Row | SMILES | Herbicidal effect grade, A: Echinochloa oryzacola Vasing. [1] | Herbicidal effect grade, B: Scirpus juncoides (Scirpus juncoides) | Herbicidal effect grade, G: Setaria viridis (Setaria viridis [2]) | Herbicidal effect grade, N: Amaranthus retroflexus (Amaranthus retroflexus) | Herbicidal effect grade, O: Chenopodium album (Chenopodium album) | Herbicidal effect grade, Q: Galium spurium (Galium spurium) | Herbicidal effect grade, R: Veronica persica (Veronica persica) | G: Setaria viridis, herbicidal effect (criteria of Test Example 1) (Setaria viridis [3]) | H: Echinochloa crus-galli var. crus-galli, herbicidal effect (criteria of Test Example 1) [4] | J: Alopecurus myosuroides, herbicidal effect (criteria of Test Example 1) (Alopecurus myosuroides) | G: Setaria viridis, herbicidal effect grade (Setaria viridis [2]) | N: Amaranthus retroflexus, herbicidal effect grade (Amaranthus retroflexus) | O: Chenopodium album, herbicidal effect grade (Chenopodium album) | Q: Galium spurium, herbicidal effect grade (Galium spurium) | R: Veronica persica, herbicidal effect grade (Veronica persica)
1 | CON=C(C)CC1CC(O)=C(c2c(C)cc(-c3ccc(F)c(Cl)c3)cc2C)C1=O (stereo not shown) [6-085] | 5 (Herbicidal ratio of 90% or more (almost completely withered)) | 3 (Herbicidal ratio of 40% or higher and lower than 70%) | 5 (Herbicidal ratio of 90% or more (almost completely withered)) | 5 (Herbicidal ratio of 90% or more (almost completely withered)) | 5 (Herbicidal ratio of 90% or more (almost completely withered)) | 4 (Herbicidal ratio of 70% or higher and lower than 90%) | 4 (Herbicidal ratio of 70% or higher and lower than 90%) | 5 (Herbicidal ratio of 90% or more (almost completely withered)) | 5 (Herbicidal ratio of 90% or more (almost completely withered)) | 5 (Herbicidal ratio of 90% or more (almost completely withered)) |  |  |  |  | 
2 | CON=C(C)CC1CC(O)=C(c2c(C)cc(-c3cc(Cl)cc(Cl)c3)cc2C)C1=O (stereo not shown) [6-087] | 5 (Herbicidal ratio of 90% or more (almost completely withered)) | 0 (Herbicidal ratio of 5% or lower (almost no effect)) | 5 (Herbicidal ratio of 90% or more (almost completely withered)) | 0 (Herbicidal ratio of 5% or lower (almost no effect)) | 0 (Herbicidal ratio of 5% or lower (almost no effect)) | 0 (Herbicidal ratio of 5% or lower (almost no effect)) | 2 (Herbicidal ratio of 20% or higher and lower than 40%) | 5 (Herbicidal ratio of 90% or more (almost completely withered)) | 5 (Herbicidal ratio of 90% or more (almost completely withered)) | 4 (Herbicidal ratio of 70% or higher and lower than 90%) |  |  |  |  | 
3 | CON=C(C)CC1CC(OC(=O)N2CCOCC2)=C(c2c(C)cc(-c3ccc(F)cc3)cc2C)C1=O (mixture of isomers) [6-059] | 5 (Herbicidal ratio of 90% or more (almost completely withered)) | 5 (Herbicidal ratio of 90% or more (almost completely withered)) |  |  |  |  |  | 5 (Herbicidal ratio of 90% or more (almost completely withered)) | 5 (Herbicidal ratio of 90% or more (almost completely withered)) | 5 (Herbicidal ratio of 90% or more (almost completely withered)) | 5 (Herbicidal ratio of 90% or more (almost completely withered)) | 0 (Herbicidal ratio of 5% or lower (almost no effect)) | 0 (Herbicidal ratio of 5% or lower (almost no effect)) | 3 (Herbicidal ratio of 40% or higher and lower than 70%) | 3 (Herbicidal ratio of 40% or higher and lower than 70%)
4 | CCc1cc(Br)cc(C)c1C1=C(O)CC(CC(C)=O)C1=O (stereo not shown) [7-003] | 5 (Herbicidal ratio of 90% or more (almost completely withered)) | 0 (Herbicidal ratio of 5% or lower (almost no effect)) | 5 (Herbicidal ratio of 90% or more (almost completely withered)) | 0 (Herbicidal ratio of 5% or lower (almost no effect)) | 0 (Herbicidal ratio of 5% or lower (almost no effect)) | 0 (Herbicidal ratio of 5% or lower (almost no effect)) | 0 (Herbicidal ratio of 5% or lower (almost no effect)) | 5 (Herbicidal ratio of 90% or more (almost completely withered)) | 5 (Herbicidal ratio of 90% or more (almost completely withered)) | 5 (Herbicidal ratio of 90% or more (almost completely withered)) |  |  |  |  | 
5 | CON=C(C)CC1CC(O)=C(c2c(C)cc(-c3cc(F)c(F)c(F)c3)cc2C)C1=O (stereo not shown) [6-104] | 5 (Herbicidal ratio of 90% or more (almost completely withered)) | 5 (Herbicidal ratio of 90% or more (almost completely withered)) | 5 (Herbicidal ratio of 90% or more (almost completely withered)) | 5 (Herbicidal ratio of 90% or more (almost completely withered)) | 4 (Herbicidal ratio of 70% or higher and lower than 90%) | 4 (Herbicidal ratio of 70% or higher and lower than 90%) | 4 (Herbicidal ratio of 70% or higher and lower than 90%) | 5 (Herbicidal ratio of 90% or more (almost completely withered)) | 5 (Herbicidal ratio of 90% or more (almost completely withered)) | 5 (Herbicidal ratio of 90% or more (almost completely withered)) |  |  |  |  | 
6 | CON=C(C)CC1CC(OC(=O)COc2ccccc2)=C(c2c(C)cc(-c3ccccc3)cc2OC)C1=O (stereo not shown) [6-100] | 5 (Herbicidal ratio of 90% or more (almost completely withered)) | 5 (Herbicidal ratio of 90% or more (almost completely withered)) | 5 (Herbicidal ratio of 90% or more (almost completely withered)) | 5 (Herbicidal ratio of 90% or more (almost completely withered)) | 5 (Herbicidal ratio of 90% or more (almost completely withered)) | 1 (Herbicidal ratio of 5% or higher and lower than 20%) | 5 (Herbicidal ratio of 90% or more (almost completely withered)) | 5 (Herbicidal ratio of 90% or more (almost completely withered)) | 5 (Herbicidal ratio of 90% or more (almost completely withered)) | 5 (Herbicidal ratio of 90% or more (almost completely withered)) |  |  |  |  | 
7 | CC(=O)CC1CC(O)=C(c2c(C)cc(OCc3ccccc3)cc2C)C1=O (stereo not shown) [7-018] | 2 (Herbicidal ratio of 20% or higher and lower than 40%) | 0 (Herbicidal ratio of 5% or lower (almost no effect)) | 1 (Herbicidal ratio of 5% or higher and lower than 20%) | 0 (Herbicidal ratio of 5% or lower (almost no effect)) | 0 (Herbicidal ratio of 5% or lower (almost no effect)) | 0 (Herbicidal ratio of 5% or lower (almost no effect)) | 0 (Herbicidal ratio of 5% or lower (almost no effect)) | 4 (Herbicidal ratio of 70% or higher and lower than 90%) | 4 (Herbicidal ratio of 70% or higher and lower than 90%) | 0 (Herbicidal ratio of 5% or lower (almost no effect)) |  |  |  |  | 
